Here are results for 2 molecules from article PMC6685790 (Nature structural & molecular biology, 2008).

Where a chain is given by its changes, count along the chain named.

What all share (assay): Whole-cell recording of substituted GlyR in HEK cells
Common to all, as to format: cell-based

The target in one assay is T1, GlyR α1^L118A (Homo sapiens, UniProt P23415, L146A).
T1 sequence (P23415 29-457 L146A): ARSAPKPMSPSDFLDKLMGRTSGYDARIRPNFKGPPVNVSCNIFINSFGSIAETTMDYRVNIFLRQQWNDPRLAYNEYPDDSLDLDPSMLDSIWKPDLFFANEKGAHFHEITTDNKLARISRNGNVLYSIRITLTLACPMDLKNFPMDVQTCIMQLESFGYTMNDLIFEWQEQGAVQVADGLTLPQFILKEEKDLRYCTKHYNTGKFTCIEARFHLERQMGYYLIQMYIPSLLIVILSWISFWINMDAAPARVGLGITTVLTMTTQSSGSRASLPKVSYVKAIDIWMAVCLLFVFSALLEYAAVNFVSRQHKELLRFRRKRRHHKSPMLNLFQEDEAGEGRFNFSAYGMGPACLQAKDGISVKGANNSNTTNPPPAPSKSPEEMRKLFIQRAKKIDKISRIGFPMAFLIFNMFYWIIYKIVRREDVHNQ

The target in the next assay is T2, GlyR α1^L134A, E157A (Homo sapiens, UniProt P23415, E185A/L162A).
T2 sequence (P23415 29-457 L162A/E185A): T1 sequence (P23415 29-457 L146A) with A118L, L134A, E157A

The target of another assay is T3, GlyR α1^V60A (Homo sapiens, UniProt P23415, V88A).
T3 sequence (P23415 29-457 V88A): T1 sequence (P23415 29-457 L146A) with V60A, A118L

The target of a further assay is T4, GlyR α1^L98A (Homo sapiens, UniProt P23415, L126A).
T4 sequence (P23415 29-457 L126A): T1 sequence (P23415 29-457 L146A) with L98A, A118L
The following applies: α1^L98A.

The target of the next assay is T5, GlyR α1^I132A (Homo sapiens, UniProt P23415, I160A).
T5 sequence (P23415 29-457 I160A): T1 sequence (P23415 29-457 L146A) with A118L, I132A

The target of a further assay is T6, GlyR α1^F100A (Homo sapiens, UniProt P23415, F128A).
T6 sequence (P23415 29-457 F128A): T1 sequence (P23415 29-457 L146A) with F100A, A118L

Setting [1] is: direct activation without glycine.
The mark [2] stands for this setting: read-out: Zn^2+ Inhibition IC50, modulation of EC50 glycine currents.
[3] abbreviates: read-out: Zn^2+ Activation EC50, direct activation without glycine.
The mark [4] stands for this setting: maximal Zn^2+ response as percentage of maximal glycine response in same cell.

The term IC50 denotes the concentration needed to halve the response being measured. Broadly, the EC50 is the concentration giving half of the maximal effect. On to `[Zn+2]` [Zn^2+], for which the “Zn^2+ Activation EC50” value at GlyR α1^L118A (setting [1]) and at GlyR α1^V60A (setting [1]) was “None” in each case. The IC50 at GlyR α1^L118A (setting [2]) was 10.3 ± 0.36 µM; at GlyR α1^V60A (setting [2]), 10.1 ± 1.26 µM; on GlyR α1^L98A (setting [2]) it was more than 1000 µM; at GlyR α1^I132A (setting [2]) it was more than 1000 µM; at GlyR α1^F100A (setting [2]), more than 1000 µM. Further, on GlyR α1^L134A, E157A (α1^L134A, E157A vs α1^L134A), the “Reduction in sensitivity to Zn^2+ activation” value was found to be 3 fold. The concentration for a half-maximal effect (EC50) on GlyR α1^L98A (setting [3]) came out at 0.26 ± 0.08 µM; at GlyR α1^I132A (setting [3]), 140 ± 30 µM; at GlyR α1^F100A (setting [3]), 9.2 ± 0.6 µM. The “Zn^2+ Activation nH” value on GlyR α1^L98A (Hill slope) was 1.1 ± 0.2; on GlyR α1^I132A (Hill slope), 1.2 ± 0.1; at GlyR α1^F100A (Hill slope), 0.5 ± 0.1. Further, the “Zn^2+ Activation Relative efficacy (% Gly Imax)” value on GlyR α1^L98A (setting [4]) was found to be 49 ± 5 % Gly Imax; at GlyR α1^I132A (setting [4]), 72 ± 5 % Gly Imax; on GlyR α1^F100A (setting [4]), 7 ± 4 % Gly Imax.
As for `NCC(=O)O` [Glycine, glycine], the “Glycine Imax” value was 6.3 ± 0.7 nA at GlyR α1^L118A; 6.5 ± 1.3 nA at GlyR α1^V60A; 6.4 ± 0.5 nA at GlyR α1^L98A; 6.1 ± 0.7 nA on GlyR α1^I132A; 4.5 ± 0.7 nA on GlyR α1^F100A. In addition, the “Glycine nH” value on GlyR α1^L118A (Hill slope) was found to be 3.00 ± 0.2; on GlyR α1^V60A (Hill slope), 3.5 ± 0.8; at GlyR α1^L98A (Hill slope), 1.9 ± 0.3; at GlyR α1^I132A (Hill slope), 2.7 ± 0.4; at GlyR α1^F100A (Hill slope), 1.8 ± 0.2. Besides, the “Reduction in sensitivity to glycine” value on GlyR α1^L134A, E157A (α1^L134A with extra mutation E157A vs α1^L134A) was determined as 50 fold. The “Threshold concentration for glycine” value at GlyR α1^L134A, E157A (α1^L134A, E157A) was more than 100 µM.
